According to ChEMBL document CHEMBL6096649, “Enantiomeric C-6 fluorinated swainsonine derivatives as highly selective and potent inhibitors of α-mannosidase and α-l-rhamnosidase: Design, synthesis and structure-activity relationship study” (Eur J Med Chem, 2025):
Calls of active or inactive are those of the source. No cut-off for these calls is given here.

What was measured:
Alpha-mannosidase [1] = target: T1, Alpha-mannosidase (Canavalia ensiformis, UniProt C0HJB3); test: Inhibition of jack bean alpha-mannosidase using p-nitrophenyl glycoside as substrate assessed as release of p-nitrophenol by spectrometric analysis
T1 sequence (C0HJB3 whole entry): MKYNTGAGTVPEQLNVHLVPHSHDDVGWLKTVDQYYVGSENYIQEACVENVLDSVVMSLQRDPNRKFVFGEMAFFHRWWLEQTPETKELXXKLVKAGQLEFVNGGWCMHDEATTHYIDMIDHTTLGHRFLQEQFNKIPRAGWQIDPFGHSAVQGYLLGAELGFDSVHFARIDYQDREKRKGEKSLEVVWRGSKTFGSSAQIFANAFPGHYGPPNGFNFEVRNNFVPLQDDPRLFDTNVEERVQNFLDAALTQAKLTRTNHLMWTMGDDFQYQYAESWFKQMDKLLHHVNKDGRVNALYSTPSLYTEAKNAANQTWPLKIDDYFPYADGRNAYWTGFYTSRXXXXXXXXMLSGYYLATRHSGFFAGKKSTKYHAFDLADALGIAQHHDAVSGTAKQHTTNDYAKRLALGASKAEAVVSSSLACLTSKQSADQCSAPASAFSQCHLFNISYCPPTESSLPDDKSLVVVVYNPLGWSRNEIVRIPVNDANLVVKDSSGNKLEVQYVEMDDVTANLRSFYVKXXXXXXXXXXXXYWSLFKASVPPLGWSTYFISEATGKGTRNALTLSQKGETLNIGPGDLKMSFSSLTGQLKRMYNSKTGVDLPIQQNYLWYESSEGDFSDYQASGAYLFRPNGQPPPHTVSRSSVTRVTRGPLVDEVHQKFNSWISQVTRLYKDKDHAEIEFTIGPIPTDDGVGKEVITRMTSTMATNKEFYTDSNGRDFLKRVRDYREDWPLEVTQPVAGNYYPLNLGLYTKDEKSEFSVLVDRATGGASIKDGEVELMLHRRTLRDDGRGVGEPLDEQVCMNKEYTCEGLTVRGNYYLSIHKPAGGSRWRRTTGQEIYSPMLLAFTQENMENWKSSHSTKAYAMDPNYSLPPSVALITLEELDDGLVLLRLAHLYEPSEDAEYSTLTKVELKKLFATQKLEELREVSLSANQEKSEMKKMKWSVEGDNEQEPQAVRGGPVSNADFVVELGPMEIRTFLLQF

[2] = target: Alpha-glucosidase (Saccharomyces cerevisiae S288c) (UniProt P53341+P38158+P07265); test: Inhibition of yeast Alpha-glucosidase using p-nitrophenyl glycoside as substrate assessed as p-nitrophenol release at 1000 uM by spectrometric analysis relative to control; format: protein assay
Rattus norvegicus = species: Rattus norvegicus; test: Inhibition of rat intestinal Alpha-glucosidase using p-nitrophenyl glycoside as substrate assessed as p-nitrophenol release at 1000 uM by spectrometric analysis relative to control
[3] = target: Alpha glucosidase (Homo sapiens) (UniProt O43451+P10253+P14410+Q2M2H8); test: Inhibition of human Alpha-glucosidase using p-nitrophenyl glycoside as substrate assessed as p-nitrophenol release at 1000 uM by spectrometric analysis relative to control; format: protein assay
Prunus dulcis = test: Inhibition of almond Beta-glucosidase using p-nitrophenyl glycoside as substrate assessed as release of p-nitrophenol at 1000 uM by spectrometric analysis relative to control
Bos taurus [4] = species: Bos taurus; test: Inhibition of bovine liver beta-glucosidase using p-nitrophenyl glycoside as substrate assessed as release of p-nitrophenol at 1000 uM by spectrometric analysis relative to control
Homo sapiens [5] = species: Homo sapiens; test: Inhibition of human lysosome beta-glucosidase using p-nitrophenyl glycoside as substrate assessed as release of p-nitrophenol at 1000 uM by spectrometric analysis relative to control
[6] = target: Alpha-galactosidase (Coffea arabica) (UniProt Q42656); test: Inhibition of coffee bean alpha-galactosidase using p-nitrophenyl glycoside as substrate assessed as release of p-nitrophenol at 1000 uM by spectrometric analysis relative to control
Bos taurus [7] = species: Bos taurus; test: Inhibition of bovine liver beta-galactosidase using p-nitrophenyl glycoside as substrate assessed as release of p-nitrophenol at 1000 uM by spectrometric analysis relative to control
[8] = target: T2, Alpha-mannosidase (Canavalia ensiformis) (UniProt C0HJB3); test: Inhibition of jack bean alpha-mannosidase using p-nitrophenyl glycoside as substrate assessed as release of p-nitrophenol at 1000 uM by spectrometric analysis relative to control
T2 sequence (whole entry): T1 sequence (C0HJB3 whole entry)

Helix pomatia = test: Inhibition of snail beta-mannosidase using p-nitrophenyl glycoside as substrate assessed as release of p-nitrophenol at 1000 uM by spectrometric analysis relative to control
Sus scrofa = species: Sus scrofa; test: Inhibition of porcine kidney Alpha alpha-trehalase using p-nitrophenyl glycoside as substrate assessed as release of p-nitrophenol at 1000 uM by spectrometric analysis relative to control
Aspergillus niger = test: Inhibition of Aspergillus niger amyloglucosidase using p-nitrophenyl glycoside as substrate assessed as release of p-nitrophenol at 1000 uM by spectrometric analysis relative to control
Penicillium decumbens = test: Inhibition of Penicillium decumbens alpha-L-rhamnosidase using p-nitrophenyl glycoside as substrate assessed as release of p-nitrophenol at 1000 uM by spectrometric analysis relative to control
Escherichia coli = test: Inhibition of Escherichia coli beta-glucuronidase using p-nitrophenyl glycoside as substrate assessed as release of p-nitrophenol at 1000 uM by spectrometric analysis relative to control
Bos taurus [9] = species: Bos taurus; test: Inhibition of bovine liver beta-glucuronidase using p-nitrophenyl glycoside as substrate assessed as release of p-nitrophenol at 1000 uM by spectrometric analysis relative to control
CAKI-1 = test: Cytotoxicity activity against human CAKI-1 cells incubated for 48 hrs by CCK-8 assay; format: functional, cell-based; conditions: CAKI-1, 48 h
786-0 = test: Cytotoxicity activity against human 786-0 cells incubated for 48 hrs by CCK-8 assay; format: functional, cell-based; conditions: 786-0, 48 h
HepG2 = test: Cytotoxicity activity against human HepG2 cells incubated for 48 hrs by CCK-8 assay; format: functional, cell-based; conditions: HepG2, 48 h
[10] = Inhibition of Penicillium decumbens alpha-L-rhamnosidase using p-nitrophenyl glycoside as substrate assessed as release of p-nitrophenol by spectrometric analysis
Oryza sativa = test: Inhibition of rice Alpha-glucosidase using p-nitrophenyl glycoside as substrate assessed as p-nitrophenol release at 1000 uM by spectrometric analysis relative to control
Alpha-mannosidase [11] = target: T1, Alpha-mannosidase; test: Inhibition of jack bean Alpha-mannosidase using p-nitrophenyl glycoside as substrate
[12] = Inhibition of human liver Alpha-mannosidase
Homo sapiens [13] = species: Homo sapiens; test: Inhibition of human liver Alpha-mannosidase relative to control

Chain of Alpha-galactosidase (Coffea arabica) (Q42656 16-378 limits assumed): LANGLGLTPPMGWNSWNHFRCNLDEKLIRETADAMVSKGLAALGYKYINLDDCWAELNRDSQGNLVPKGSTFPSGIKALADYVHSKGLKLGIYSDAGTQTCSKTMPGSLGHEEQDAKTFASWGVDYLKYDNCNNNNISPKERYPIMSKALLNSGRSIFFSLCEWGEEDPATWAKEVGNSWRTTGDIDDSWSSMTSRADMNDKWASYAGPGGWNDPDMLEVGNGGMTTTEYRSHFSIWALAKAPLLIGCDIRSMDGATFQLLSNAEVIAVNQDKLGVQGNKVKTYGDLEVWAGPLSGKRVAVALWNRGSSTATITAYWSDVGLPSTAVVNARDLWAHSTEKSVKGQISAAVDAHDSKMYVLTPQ

Structure (SMILES): O[C@H]1[C@H]2[C@H](O)C[C@H](CCOCc3ccccc3)CN2C[C@H]1O
- IC50 (Alpha-mannosidase [1]): 230 µM

Structure (SMILES): O[C@H]1[C@H]2[C@H](O)C[C@H](F)CN2C[C@H]1O
- inhibition [2]: 1.7%
- inhibition (Rattus norvegicus): 19.1%
- inhibition [3]: 6.6%
- inhibition (Prunus dulcis): 2.1%
- inhibition (Bos taurus [4]): 2.6%
- inhibition (Homo sapiens [5]): 6%
- inhibition [6]: 0%
- inhibition (Bos taurus [7]): 0%
- inhibition [8]: 0.78%
- inhibition (Helix pomatia): 5%
- inhibition (Sus scrofa): 4.1%
- inhibition (Aspergillus niger): 6.4%
- inhibition (Penicillium decumbens): 14.4%
- inhibition (Escherichia coli): 11.3%
- inhibition (Bos taurus [9]): 6.8%
- IC50 (CAKI-1): > 200 µM
- IC50 (786-0): > 200 µM
- IC50 (HepG2): > 200 µM

Structure (SMILES): CC(C)(C)c1ccc(CC[C@@H]2CC[C@@H](O)[C@@H]3[C@H](O)[C@H](O)CN23)cc1
- IC50 (Alpha-mannosidase [1]): 3.7 µM

Structure (SMILES): CC(C)(C)c1ccc(C(=O)C[C@@H]2CC[C@@H](O)[C@@H]3[C@H](O)[C@H](O)CN23)cc1
- IC50 (Alpha-mannosidase [1]): 2.54 µM

Structure (SMILES): C[C@@H]1[C@H](O)[C@H]2[C@@H](O)[C@@H](O)CN2C[C@@]1(C)O
- IC50 [10]: 21.3 µM

Structure (SMILES): O[C@@H]1[C@@H]2[C@@H](O)CCCN2C[C@@H]1O
- IC50 [10]: 0.13 µM
- inhibition [2]: 0%
- inhibition (Oryza sativa): 0%
- inhibition (Rattus norvegicus): 26.5%
- inhibition [3]: 3.4%
- inhibition (Prunus dulcis): 7.4%
- inhibition (Bos taurus [4]): 33%
- inhibition (Homo sapiens [5]): 4.8%
- inhibition [6]: 0%
- inhibition (Bos taurus [7]): 48.3%
- inhibition [8]: 7.2%
- inhibition (Helix pomatia): 0%
- inhibition (Aspergillus niger): 17.7%
- inhibition (Penicillium decumbens): 0.26%
- inhibition (Escherichia coli): 11.3%
- inhibition (Bos taurus [9]): 0%

Structure (SMILES): C[C@@H]1C[C@H](O)[C@H]2[C@@H](O)[C@@H](O)CN2C1
- IC50 [10]: 0.034 µM

Structure (SMILES): O=C(C[C@H]1CC[C@@H](O)[C@@H]2[C@H](O)[C@H](O)CN12)c1ccccc1
- IC50 (Alpha-mannosidase [1]): 0.51 µM

Structure (SMILES): O[C@@H]1[C@@H]2[C@@H](O)[C@H](O)[C@H](O)CN2C[C@@H]1O
- IC50 [10]: 530 µM

Structure (SMILES): O[C@H]1[C@H]2[C@H](O)CC(F)(F)CN2C[C@H]1O
- inhibition [2]: 0%
- inhibition (Rattus norvegicus): 11.6%
- inhibition [3]: 8.9%
- inhibition (Prunus dulcis): 3.2%
- inhibition (Bos taurus [4]): 23.7%
- inhibition (Homo sapiens [5]): 0%
- inhibition [6]: 0.6%
- inhibition (Bos taurus [7]): 13.3%
- inhibition [8]: 0.44%
- inhibition (Helix pomatia): 40%
- inhibition (Sus scrofa): 0%
- inhibition (Aspergillus niger): 2.7%
- inhibition (Penicillium decumbens): 20.4%
- inhibition (Escherichia coli): 0%
- inhibition (Bos taurus [9]): 16.7%
- IC50 (CAKI-1): > 200 µM
- IC50 (786-0): > 200 µM
- IC50 (HepG2): > 200 µM

Structure (SMILES): CC(C)(C)c1ccc(CC[C@H]2CC[C@@H](O)[C@@H]3[C@H](O)[C@H](O)CN23)cc1
- IC50 (Alpha-mannosidase [1]): 0.42 µM

Structure (SMILES): O[C@H]1[C@H]2[C@H](O)C[C@@H](F)CN2C[C@H]1O
- inhibition [2]: 2.2%
- inhibition (Rattus norvegicus): 22.8%
- inhibition [3]: 5.6%
- inhibition (Prunus dulcis): 0.5%
- inhibition (Bos taurus [4]): 5.1%
- inhibition (Homo sapiens [5]): 0.4%
- inhibition [6]: 0%
- inhibition (Bos taurus [7]): 0.8%
- inhibition [8]: 0.5%
- inhibition (Helix pomatia): 0%
- inhibition (Sus scrofa): 2.5%
- inhibition (Aspergillus niger): 11.8%
- inhibition (Penicillium decumbens): 8.3%
- inhibition (Escherichia coli): 0%
- inhibition (Bos taurus [9]): 2.6%
- IC50 (CAKI-1): > 200 µM
- IC50 (786-0): > 200 µM
- IC50 (HepG2): > 200 µM

Structure (SMILES): NCC/N=C1/N[C@H](CO)[C@@H](O)[C@@H](O)[C@@H]1O
- Ki (Alpha-mannosidase [11]): 0.006 µM
- Ki [12]: 6 µM

Structure (SMILES): OC[C@H]1O[C@H](O[C@H]2[C@H]3[C@H](O)CCCN3C[C@H]2O)[C@H](O)[C@@H](O)[C@@H]1O
- inhibition (Homo sapiens [13]): inactive

Structure (SMILES): CCCC[C@H]1CCN2C[C@@H](O)[C@@H](O)[C@H]2[C@@H]1O
- inhibition (Homo sapiens [13]): inactive
